Data published in ChEMBL document CHEMBL5724914, “Linking interpersonal differences in gut microbiota composition and drug biotransformation activity” (2024).
Where a SMILES comes first, the peptide text is derived from it. [ ]: non-standard residue; d: D form. pGlu = O=C1CC[C@@H](C(=O)O)N1; Thz = O=C(O)[C@@H]1CSCN1

Tests used:
[1] = (§1) The drug is tested on Z-026 corresponding to metagenome with ENA study accession number: PRJEB37062 and ENA sample accession number: ERS12561825 for biotransformation under anaerobic condition. The drug concentrations were measured over 9 timepoints collected between 0 and 24 hours of incubation by liquid-chromatography-coupled mass spectrometry (LC–MS); conditions: 2 µM
[2] = human gut metagenome, 24 h, 2 µM
[3] = (§2) The drug is tested on WLS-220 corresponding to human gut metagenome with ENA study accession number: PRJEB37062 and ENA sample accession number: ERS12561769 for biotransformation under anaerobic condition. The drug concentrations were measured over 9 timepoints collected between 0 and 24 hours of incubation by liquid-chromatography-coupled mass spectrometry (LC–MS); conditions: 2 µM
[4] = human gut metagenome, 24 h, 2 µM; remark: listed apart in the source
[5] = as §2, with “WLS-069” for “WLS-220”, “ERS12561748” for “ERS12561769”; conditions: 2 µM
[6] = human gut metagenome, 24 h, 2 µM; remark: listed apart in the source
[7] = as §2, with “WLS-310” for “WLS-220”, “ERS12561785” for “ERS12561769”; conditions: 2 µM
[8] = as §2, with “Z-017” for “WLS-220”, “mouse” for “human”, “ERS12561816” for “ERS12561769”; conditions: 2 µM
[9] = human gut metagenome, 24 h, 2 µM; remark: listed apart in the source
[10] = human gut metagenome, 24 h, 2 µM; remark: listed apart in the source
[11] = as §1, with “Z-004” for “Z-026”, “ERS12561804” for “ERS12561825”; conditions: 2 µM
[12] = as §2, with “WLS-010” for “WLS-220”, “ERS12561743” for “ERS12561769”; conditions: 2 µM
[13] = human gut metagenome, 24 h, 2 µM; remark: listed apart in the source
[14] = as §2, with “WLS-039” for “WLS-220”, “ERS12561746” for “ERS12561769”; conditions: 2 µM
[15] = human gut metagenome, 24 h, 2 µM; remark: listed apart in the source
[16] = as §2, with “WLS-052” for “WLS-220”, “ERS12561747” for “ERS12561769”; conditions: 2 µM
[17] = as §2, with “WLS-240” for “WLS-220”, “ERS12561773” for “ERS12561769”; conditions: 2 µM
[18] = human gut metagenome, 24 h, 2 µM; remark: listed apart in the source
[19] = human gut metagenome, 24 h, 2 µM; remark: listed apart in the source
[20] = as §2, with “WLS-073” for “WLS-220”, “ERS12561749” for “ERS12561769”; conditions: 2 µM
Further: call rule not given here.

SMILES	Bacterial Biotransformation [1]	Bacterial Biotransformation [2]	Bacterial Biotransformation [3]	Bacterial Biotransformation [4]	Bacterial Biotransformation [5]	Bacterial Biotransformation [6]	Bacterial Biotransformation [7]	Bacterial Biotransformation [8]	Bacterial Biotransformation [9]	Bacterial Biotransformation [10]	Bacterial Biotransformation [11]	Bacterial Biotransformation [12]	Bacterial Biotransformation [13]	Bacterial Biotransformation [14]	Bacterial Biotransformation [15]	Bacterial Biotransformation [16]	Bacterial Biotransformation [17]	Bacterial Biotransformation [18]	Bacterial Biotransformation [19]	Bacterial Biotransformation [20]
CC(O)(CS(=O)(=O)c1ccc(F)cc1)C(=O)Nc1ccc(C#N)c(C(F)(F)F)c1 (centres undefined) [BICALUTAMIDE]	Compound NOT metabolized	Compound NOT metabolized	Compound NOT metabolized	Compound NOT metabolized	Compound NOT metabolized	Compound NOT metabolized	Compound NOT metabolized	Compound NOT metabolized	Compound NOT metabolized	Compound NOT metabolized	Compound NOT metabolized	Compound NOT metabolized	Compound NOT metabolized	Compound NOT metabolized	Compound NOT metabolized	Compound NOT metabolized	Compound NOT metabolized	Compound NOT metabolized	Compound NOT metabolized	–
NC(=O)N1c2ccccc2CC(=O)c2ccccc21 [OXCARBAZEPINE]	Compound NOT metabolized	Compound NOT metabolized	Compound NOT metabolized	Compound metabolized	Compound NOT metabolized	Compound NOT metabolized	Compound NOT metabolized	Compound NOT metabolized	Compound NOT metabolized	Compound NOT metabolized	Compound metabolized	–	Compound NOT metabolized	Compound NOT metabolized	Compound NOT metabolized	Compound NOT metabolized	Compound NOT metabolized	Compound NOT metabolized	Compound NOT metabolized	Compound NOT metabolized
CCCCCCOC(=O)/N=C(/N)c1ccc(NCc2nc3cc(C(=O)N(CCC(=O)OCC)c4ccccn4)ccc3n2C)cc1.CS(=O)(=O)O [DABIGATRAN ETEXILATE MESYLATE]	Compound NOT metabolized	–	–	Compound NOT metabolized	–	–	–	Compound NOT metabolized	Compound NOT metabolized	–	Compound NOT metabolized	–	–	–	–	–	–	–	–	–
O=C(NCc1ccccc1)OCCO [BURAMATE]	Compound NOT metabolized	Compound NOT metabolized	Compound NOT metabolized	Compound NOT metabolized	Compound NOT metabolized	Compound NOT metabolized	Compound NOT metabolized	–	Compound NOT metabolized	Compound NOT metabolized	Compound NOT metabolized	Compound NOT metabolized	Compound NOT metabolized	Compound NOT metabolized	Compound NOT metabolized	Compound NOT metabolized	Compound NOT metabolized	Compound NOT metabolized	Compound NOT metabolized	Compound NOT metabolized
O=C1CC[C@@H](C(=O)N2CSC[C@H]2C(=O)O)N1 [PIDOTIMOD] ([pGlu]-[Thz]-OH)	–	Compound NOT metabolized	Compound NOT metabolized	Compound NOT metabolized	–	–	–	Compound NOT metabolized	Compound NOT metabolized	Compound NOT metabolized	Compound NOT metabolized	Compound NOT metabolized	–	–	Compound NOT metabolized	–	Compound NOT metabolized	–	Compound NOT metabolized	Compound NOT metabolized
C=CCN1CC[C@]23c4c5ccc(O)c4O[C@H]2C(=O)CC[C@@]3(O)[C@H]1C5 [NALOXONE]	Compound NOT metabolized	Compound NOT metabolized	Compound NOT metabolized	Compound NOT metabolized	Compound NOT metabolized	Compound NOT metabolized	Compound NOT metabolized	Compound NOT metabolized	Compound NOT metabolized	Compound NOT metabolized	Compound NOT metabolized	–	Compound NOT metabolized	Compound NOT metabolized	Compound NOT metabolized	Compound NOT metabolized	Compound NOT metabolized	Compound NOT metabolized	Compound metabolized	Compound NOT metabolized
C#C[C@]1(O)CC[C@H]2[C@@H]3CCC4=CC(=O)CC[C@@H]4[C@H]3CC[C@@]21CC [LEVONORGESTREL]	Compound metabolized	Compound metabolized	Compound metabolized	Compound metabolized	Compound metabolized	Compound metabolized	Compound metabolized	Compound metabolized	Compound metabolized	Compound metabolized	Compound metabolized	–	Compound metabolized	Compound metabolized	Compound metabolized	Compound metabolized	–	Compound metabolized	Compound metabolized	Compound NOT metabolized
c1ccc([C@H]2CN3CCSC3=N2)cc1 [LEVAMISOLE]	–	Compound metabolized	Compound metabolized	Compound metabolized	Compound metabolized	Compound metabolized	Compound metabolized	Compound NOT metabolized	Compound metabolized	Compound metabolized	Compound NOT metabolized	–	Compound metabolized	Compound metabolized	Compound NOT metabolized	Compound NOT metabolized	Compound metabolized	Compound metabolized	Compound metabolized	–
O=c1[nH]c2ccccc2n1CCCN1CCC(n2c(=O)[nH]c3cc(Cl)ccc32)CC1 [DOMPERIDONE]	Compound NOT metabolized	Compound NOT metabolized	Compound NOT metabolized	Compound NOT metabolized	Compound NOT metabolized	Compound NOT metabolized	Compound NOT metabolized	Compound NOT metabolized	–	Compound NOT metabolized	Compound NOT metabolized	–	Compound NOT metabolized	Compound NOT metabolized	Compound NOT metabolized	Compound NOT metabolized	Compound NOT metabolized	–	Compound NOT metabolized	Compound NOT metabolized
CCCc1nc(C(C)(C)O)c(C(=O)OCc2oc(=O)oc2C)n1Cc1ccc(-c2ccccc2-c2nnn[nH]2)cc1 [OLMESARTAN MEDOXOMIL]	Compound NOT metabolized	Compound NOT metabolized	Compound metabolized	Compound metabolized	Compound metabolized	Compound metabolized	Compound metabolized	Compound metabolized	Compound metabolized	Compound metabolized	Compound metabolized	–	Compound metabolized	Compound metabolized	Compound NOT metabolized	Compound metabolized	Compound NOT metabolized	Compound metabolized	Compound NOT metabolized	Compound metabolized
